Key:
Test in all cases: relative viability (nuclei count vs DMSO), 5 days (fraction); higher = more cells survive
Tozasertib + Bortezomib = compound: Cc1cc(Nc2cc(N3CCN(C)CC3)nc(Sc3ccc(NC(=O)C4CC4)cc3)n2)n[nH]1 [Tozasertib] + CC(C)C[C@H](NC(=O)[C@H](Cc1ccccc1)NC(=O)c1cnccn1)B(O)O [Bortezomib] (partner 0.002 µM)
Method in brief: (§1)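 Cells from lung cancer lines were seeded into 1536-well plates and, one day later, dosed by pin tool. Treatments were either a single drug or a fixed dose of an anchor drug with five library-drug doses (not always all listed) in √10 steps. After 5 days, nuclei were stained in a one-step fixation (final 0.05% Triton X-100, 1% formaldehyde, 1 ug/ml Hoechst) and counted on 4× images, and relative viability is the treated-to-vehicle nuclei ratio, as the median of duplicate plates.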

Tozasertib + Pictilisib = compound: Cc1cc(Nc2cc(N3CCN(C)CC3)nc(Sc3ccc(NC(=O)C4CC4)cc3)n2)n[nH]1 [Tozasertib] + CS(=O)(=O)N1CCN(Cc2cc3nc(-c4cccc5[nH]ncc45)nc(N4CCOCC4)c3s2)CC1 [Pictilisib] (partner 1 µM)
Method in brief: as §1

Tozasertib + Linsitinib = compound: Cc1cc(Nc2cc(N3CCN(C)CC3)nc(Sc3ccc(NC(=O)C4CC4)cc3)n2)n[nH]1 [Tozasertib] + C[C@]1(O)C[C@@H](c2nc(-c3ccc4ccc(-c5ccccc5)nc4c3)c3c(N)nccn32)C1 [Linsitinib] (partner 1 µM)
Method in brief: as §1

Tozasertib + Alpelisib = compound: Cc1cc(Nc2cc(N3CCN(C)CC3)nc(Sc3ccc(NC(=O)C4CC4)cc3)n2)n[nH]1 [Tozasertib] + Cc1nc(NC(=O)N2CCC[C@H]2C(N)=O)sc1-c1ccnc(C(C)(C)C(F)(F)F)c1 [Alpelisib] (partner 2 µM)
Method in brief: as §1

Tozasertib + Vorinostat = compound: Cc1cc(Nc2cc(N3CCN(C)CC3)nc(Sc3ccc(NC(=O)C4CC4)cc3)n2)n[nH]1 [Tozasertib] + O=C(CCCCCCC(=O)Nc1ccccc1)NO [Vorinostat] (partner 1 µM)
Method in brief: as §1

| Cell Line | relative viability (Tozasertib + Bortezomib; first compound 0.004 µM) | relative viability (Tozasertib + Bortezomib; first compound 0.01265 µM) | relative viability (Tozasertib + Bortezomib; first compound 0.04 µM) | relative viability (Tozasertib + Bortezomib; first compound 0.1265 µM) | relative viability (Tozasertib + Pictilisib; first compound 0.004 µM) | relative viability (Tozasertib + Pictilisib; first compound 0.01265 µM) | relative viability (Tozasertib + Pictilisib; first compound 0.04 µM) | relative viability (Tozasertib + Pictilisib; first compound 0.1265 µM) | relative viability (Tozasertib + Linsitinib; first compound 0.004 µM) | relative viability (Tozasertib + Linsitinib; first compound 0.04 µM) | relative viability (Tozasertib + Linsitinib; first compound 0.1265 µM) | relative viability (Tozasertib + Alpelisib; first compound 0.004 µM) | relative viability (Tozasertib + Alpelisib; first compound 0.01265 µM) | relative viability (Tozasertib + Alpelisib; first compound 0.04 µM) | relative viability (Tozasertib + Alpelisib; first compound 0.1265 µM) | relative viability (Tozasertib + Vorinostat; first compound 0.004 µM) | relative viability (Tozasertib + Vorinostat; first compound 0.01265 µM) | relative viability (Tozasertib + Vorinostat; first compound 0.04 µM) | relative viability (Tozasertib + Vorinostat; first compound 0.1265 µM) | relative viability (Tozasertib + Linsitinib; first compound 0.01265 µM) |
| --- | --- | --- | --- | --- | --- | --- | --- | --- | --- | --- | --- | --- | --- | --- | --- | --- | --- | --- | --- | --- |
| HARA | 1.18 | 1 | 1.01 | 0.664 | 0.421 | 0.44 | 0.373 | 0.243 | 1 | 1.01 | 0.374 | 0.955 | 0.795 | 0.994 | 0.305 | 0.674 | 0.427 | 0.507 | 0.419 | – |
| PC-14 | 0.861 | 0.9 | 1.03 | 0.896 | 0.14 | 0.541 | 0.593 | 0.725 | 1.01 | 1.03 | 0.828 | 0.982 | 0.95 | 0.954 | 0.956 | – | 0.741 | 0.879 | 0.121 | 1 |
| EPLC-272H | 0.774 | 0.804 | 0.775 | – | 0.442 | 0.31 | 0.326 | – | 1.13 | 1.12 | – | 0.845 | 0.789 | 1.11 | – | 0.521 | – | 0.318 | 0.287 | 1.18 |
| NCI-H1355 | 1.19 | 1.15 | 1.27 | 0.606 | 0.426 | 0.461 | 0.52 | 0.272 | 0.751 | 0.912 | 0.722 | 0.851 | 0.804 | 0.96 | 0.78 | 0.594 | 0.571 | 0.669 | 0.516 | 0.816 |
| NCI-H1944 | – | – | – | – | 0.36 | 0.339 | 0.331 | 0.275 | 1.12 | 1.18 | 0.798 | 0.785 | 0.75 | 0.891 | 0.495 | 0.557 | 0.519 | 0.427 | 0.204 | 1.25 |
| NCI-H460 | 1.13 | 0.949 | 1.46 | 0.844 | 0.337 | 0.346 | 0.389 | 0.319 | 0.738 | 0.787 | 0.149 | 0.544 | 0.435 | 0.449 | 0.293 | 0.83 | 0.769 | 0.912 | 0.163 | 0.751 |
| NCI-H322M | 0.993 | 1.12 | 1.39 | 1.23 | 0.485 | 0.474 | 0.576 | 0.419 | 0.893 | 0.923 | 0.848 | 0.732 | 0.749 | 0.904 | 0.848 | 0.91 | 0.828 | 0.984 | 0.588 | 0.998 |
| NCI-H1666 | 0.772 | 0.748 | – | 0.434 | 0.455 | 0.412 | 0.586 | 0.305 | 0.835 | 0.861 | 0.64 | 1.06 | 0.976 | 0.973 | 0.632 | 0.988 | 1.06 | 1 | 0.961 | 0.854 |
| 201T | 1.1 | 1.06 | 1.07 | – | 0.716 | 0.581 | 0.709 | 0.537 | 1.02 | 1.08 | 1.04 | 0.993 | 0.968 | 1.06 | 1 | 0.939 | 0.902 | 0.968 | 0.946 | 0.955 |
| LC-2-ad | 0.949 | 0.978 | 1.04 | 0.427 | 0.505 | 0.516 | 0.427 | 0.127 | 0.906 | 0.684 | 0.329 | 0.881 | 0.82 | 1.02 | 0.354 | 0.762 | 0.631 | 0.613 | 0.272 | 0.82 |
| NCI-H1755 | 0.938 | 0.927 | 1.04 | 0.626 | 0.422 | 0.395 | 0.444 | 0.232 | 0.976 | 0.999 | 0.865 | 0.518 | 0.908 | 0.948 | 0.629 | 0.749 | 0.782 | 0.744 | 0.675 | 0.948 |
| NCI-H2342 | – | – | – | – | – | – | – | – | – | – | – | – | – | – | – | 0.77 | 0.78 | 0.782 | 0.597 | – |
| BEN | 1.01 | 0.79 | 0.925 | 0.571 | 0.56 | 0.575 | 0.66 | 0.456 | 1.08 | 0.927 | 0.85 | 1.04 | 0.948 | 1.14 | 0.931 | 0.551 | – | 0.59 | 0.398 | 0.948 |
| EKVX | 1.19 | 0.993 | – | 1.05 | 0.383 | 0.443 | 0.527 | 0.348 | 0.812 | 1.18 | 0.913 | 0.779 | 0.846 | 1.01 | 0.878 | 0.665 | 0.543 | 0.637 | 0.613 | 0.975 |
| SW 1573 | 1.15 | 1.07 | 1.22 | 0.744 | 0.541 | 0.541 | 0.546 | 0.293 | 0.76 | – | 0.517 | 0.751 | 0.674 | 0.615 | 0.702 | 0.624 | 0.599 | 0.509 | 0.192 | 0.901 |
| NCI-H441 | 0.424 | 0.298 | 0.379 | 0.213 | 0.431 | 0.447 | 0.477 | 0.304 | 0.496 | 0.616 | 0.353 | 0.69 | 0.69 | 0.758 | 0.541 | 0.852 | 0.823 | 0.845 | 0.766 | 0.551 |
| NCI-H1437 | 0.757 | 0.509 | 0.55 | 0.31 | 0.479 | 0.385 | 0.448 | 0.318 | 1.09 | 1 | 0.779 | – | 0.866 | 1.01 | 0.92 | 0.851 | 0.792 | 0.769 | 0.481 | 0.971 |

— the supplement of paper PMC10307832
